Source: US20250019648A1, “A SPERM EXTENDER MEDIUM” (MEAT & LIVESTOCK AUSTRALIA LIMITED, priority 2021, published 2025)

Key:
bovine spermatozoa [1] = assay: Fungicide comparison on bovine sperm motility; assay type: cell-based; conditions: Nystatin 100 U/mL, Fluconazole 12.5 mg/L and 25 mg/L; 1, 3, 7, 10 and 14 days at RT in glycine (82.2 mM) medium
Description: Sperm motility was objectively determined with computer assisted sperm analysis (CASA; IVOS, Hamilton Thorne, Danvers, MA) using the following settings; negative phase-contrast optics, recording rate of 60 frames/s, minimum contrast of 70, minimum cell size of 4 pixels, low size gate of 0.17, high size gate of 2.9, low intensity gate of 0.6, high intensity gate of 1.74, non-motile head size of 10 pixels, non-motile head intensity of 135, progressive VAP threshold of 50 μm/s, slow (static) cells VAP threshold of 20 μm/s, slow (static) cells VSL threshold of 0 μm/s and threshold STR of 75%. […] Cells with a VAP greater than that of the mean VAP of progressive cells were considered ‘rapid’. A minimum of 200 spermatozoa in a minimum of five fields were assessed using 20 μm Leja standard count slides (Gytech, Australia) and a stage temperature of 37° C. […]
Semen was collected, processed and stored according as above (Example 2, Section 1.1). Following 1, 3, 7, 10 and 14 days of storage at RT in the base extender solution as described (Example 2, Experiment 2) supplemented with glycine to a final concentration of 82.2 mM (pH of the medium was 7.9), sperm motility was assessed using CASA as above. Data were analysed using JMP v14 software (ANOVA).

bovine spermatozoa [2] = assay: Effects of medium components on bovine sperm motility after 24 hours at RT (Experiment 2); assay type: cell-based; conditions: for total and progressive motilities when 50% of the NaCl was replaced: L-carnitine 100 mM or choline chloride 95 mM; for effect on sperm motility at the 24 h mark as determined by CASA: field conditions, rosiglitazone 0-100 μM, sugar source, coenzyme Q10
Description: Institutional and New South Wales State Government ethical approval was secured for the use of animal material in this study. This research was based on ejaculates from 17 normozoospermic Angus bulls (between 3 and 7 years of age) of proven fertility, held on institutionally-approved premises at Charles Sturt University ([…], Australia). Semen was collected via electro-ejaculation, and the ejaculate was either left undiluted (Experiment 1) or was immediately diluted (2:1; extender:semen) with INRA96 (Experiments 2 and 3-Sections 2 and 3). […] Equipment and extender medium were maintained at temperatures between 30° C. and 37° C. for the duration of semen collection and dilution. The tubes of extended semen were then held in the laboratory at RT (approx. 20 to 25° C.) for up to 30 min prior to further processing. For Experiment 1, up to 6 mL of the extended semen was either centrifuged directly (700×g for 10 min), or was overlaid on top of BoviPureTM gradient and centrifuged at 700×g for 20 min, and for Experiments 2 and 3 up to 5 mL extended semen was layered on top of PercollTM gradients and centrifuged at 700×g for 30 min. Following centrifugation, the seminal plasma and density gradient media were removed and discarded. Spermatozoa were recovered from the base of the tubes, resuspended in 2 mL BWW and washed via centrifugation (500×g for 5 min) with BWW. These pelleted cells were then resuspended at a concentration of 50×10^6 spermatozoa/mL in the experimental extender media. Sperm motility was objectively determined with computer assisted sperm analysis (CASA; IVOS, Hamilton Thorne, Danvers, MA) using the following settings; negative phase-contrast optics, recording rate of 60 frames/s, minimum contrast of 70, minimum cell size of 4 pixels, low size gate of 0.17, high size gate of 2.9, low intensity gate of 0.6, high intensity gate of 1.74, non-motile head size of 10 pixels, non-motile head intensity of 135, progressive VAP threshold of 50 μm/s, slow (static) cells VAP threshold of 20 μm/s, slow (static) cells VSL threshold of 0 μm/s and threshold STR of 75%. […] Cells with a VAP greater than that of the mean VAP of progressive cells were considered 'rapid'. A minimum of 200 spermatozoa in a minimum of five fields were assessed using 20 μm Leja standard count slides ([…], Australia) and a stage temperature of 37° C.

[3] = Lide, Handbook of Chemistry and Physics, 72nd Edition; cited from earlier work
bovine spermatozoa [4] = assay: Comparison of amino acid osmolytes on bovine sperm motility during liquid storage at RT; assay type: cell-based; conditions: for total and progressive motilities compared with other osmolyte treatments: Part 1, 7 days storage at RT, n=10 bulls; for total and progressive motilities compared with other osmolyte treatments / motility by day 14 of storage / loss in motility between 3 and 10 days of storage: 82.2 mM in base solution without NaCl; for motility by day 14 of storage / loss in motility between 3 and 10 days of storage / motility compared with NaCl and choline chloride controls: Part 2; for motility by day 14 of storage / loss in motility between 3 and 10 days of storage: RT; for loss in motility between 3 and 10 days of storage: n=9 bulls; for motility compared with NaCl and choline chloride controls: all time points (3, 7, 10, 14 days) at RT; for capability to prolong bovine sperm motility at room temperature: amino acid as osmolyte in extender medium
Description: Sperm motility was objectively determined with computer assisted sperm analysis (CASA; IVOS, Hamilton Thorne, Danvers, MA) using the following settings; negative phase-contrast optics, recording rate of 60 frames/s, minimum contrast of 70, minimum cell size of 4 pixels, low size gate of 0.17, high size gate of 2.9, low intensity gate of 0.6, high intensity gate of 1.74, non-motile head size of 10 pixels, non-motile head intensity of 135, progressive VAP threshold of 50 μm/s, slow (static) cells VAP threshold of 20 μm/s, slow (static) cells VSL threshold of 0 μm/s and threshold STR of 75%. […] Cells with a VAP greater than that of the mean VAP of progressive cells were considered ‘rapid’. A minimum of 200 spermatozoa in a minimum of five fields were assessed using 20 μm Leja standard count slides (Gytech, Australia) and a stage temperature of 37° C.
Bull semen (animals were housed at Charles Sturt University, Wagga Wagga, NSW, Australia) was collected via electroejaculation, immediately diluted 2:1 (extender:semen) with equine INRA96™ semen extender, and maintained at room temperature (RT) before further processing. Extended semen was then layered onto a discontinuous (45/90%) Percoll™ gradient and centrifuged at 700×g for 30 min to isolate high quality spermatozoa to be used for storage experiments described below. The high-quality pelleted spermatozoa were then resuspended in modified Biggers, Whitter and Whittingham (BWW) medium (Gibb et al., 2014) and washed again via centrifugation (300×g for 5 min). Pelleted spermatozoa were then resuspended in the various formulations described in each experiment, and stored in 5 mL Sarstedt specimen pots at RT (21-23° C.) in the dark until they were assessed.
This study was undertaken in 2 parts: the first was a screening of soluble amino acids (spermatozoa from split ejaculates of n=10 bulls), and the second was to confirm the results of the first part using only the most successful 3 amino acids (spermatozoa from split ejaculates of n=9 bulls). Sodium chloride and choline chloride were used as osmolyte controls.
The base bovine extender solution described above (Example 1, Experiment 3) was utilised for the purposes of these evaluations, with the exception that the 41.1 mM NaCl was not included in the base solution to which either the test amino acid or choline chlorine was added. Test amino acid was added to the base solution to a final concentration of 82.2 mM whilst the controls contained either the NaCl or choline chloride to a final concentration of 41.1 mM. The initial pH of solutions varied between 7-10 and were adjusted to be between 7.5 and 8.0 with either KOH or HCl. All test media were supplemented with 100 U/ml Nystatin to control fungal growth. Sperm motility was assessed as per Example 1.
For Part 1 of the study, motility was evaluated following 7 days liquid storage at room temperature (RT). Motility of spermatozoa was evaluated at 3, 7, 10 and 14 days liquid storage at RT for Part 2 of the study. Data were again analysed using JMP v14 software (ANOVA).

## OC(Cn1cncn1)(Cn1cncn1)c1ccc(F)cc1F [Fluconazole]
Bovine spermatozoa [1]
  difference in sperm motility between antifungal treatments and control with no antifungal: No significant differences

## C[N+](C)(C)C[C@H](O)CC(=O)[O-] [L-carnitine]
Bovine spermatozoa [2]; 24 hours at RT
  total and progressive motilities when 50% of the NaCl was replaced: improved

## CC(=O)C(=O)[O-].[Na+] [Sodium pyruvate]
Bovine spermatozoa [2]; 0.275 mM to 20 mM, 24 hours at RT
  difference in sperm motility versus absence of the component: No significant difference

## C[C@H](N)C(=O)O [alanine]
[3]
  isoelectric point (pI): 6.0
Bovine spermatozoa [4]
  total and progressive motilities compared with other osmolyte treatments: significantly higher than all other treatments
  motility by day 14 of storage: significantly declined
  loss in motility between 3 and 10 days of storage: did not suffer any significant loss in motility
  motility compared with NaCl and choline chloride controls: significantly higher than both of the controls

## C[N+](C)(C)CCO.[Cl-] [choline chloride, reference compound]
Bovine spermatozoa [2]; 24 hours at RT
  total and progressive motilities when 50% of the NaCl was replaced: improved

## COC1=C(OC)C(=O)C(C/C=C(\C)CC/C=C(\C)CC/C=C(\C)CC/C=C(\C)CC/C=C(\C)CC/C=C(\C)CC/C=C(\C)CC/C=C(\C)CC/C=C(\C)CCC=C(C)C)=C(C)C1=O [coenzyme Q10]
Bovine spermatozoa [2]
  effect on sperm motility at the 24 h mark as determined by CASA: No significant effects

## N[C@@H](CS)C(=O)O [cysteine]
[3]
  isoelectric point (pI): 5.07
Bovine spermatozoa [4]
  capability to prolong bovine sperm motility at room temperature: no or only relatively limited capability

## O=C(CO)[C@@H](O)[C@H](O)[C@H](O)CO [fructose]
Bovine spermatozoa [2]
  effect on sperm motility at the 24 h mark as determined by CASA: No significant effects

## NCC(=O)O [glycine]
[3]
  isoelectric point (pI): 5.97
Bovine spermatozoa [4]
  total and progressive motilities compared with other osmolyte treatments: significantly higher than all other treatments
  motility by day 14 of storage: significantly declined
  loss in motility between 3 and 10 days of storage: did not suffer any significant loss in motility
  motility compared with NaCl and choline chloride controls: significantly higher than both of the controls

## CC[C@H](C)[C@H](N)C(=O)O [isoleucine]
[3]
  isoelectric point (pI): 6.02
Bovine spermatozoa [4]
  capability to prolong bovine sperm motility at room temperature: no or only relatively limited capability

## CC(C)C[C@H](N)C(=O)O [leucine]
Bovine spermatozoa [4]
  capability to prolong bovine sperm motility at room temperature: no or only relatively limited capability

## CSCC[C@H](N)C(=O)O [methionine]
[3]
  isoelectric point (pI): 5.74
Bovine spermatozoa [4]
  capability to prolong bovine sperm motility at room temperature: no or only relatively limited capability

## N[C@@H](Cc1ccccc1)C(=O)O [phenylalanine]
[3]
  isoelectric point (pI): 5.48
Bovine spermatozoa [4]
  capability to prolong bovine sperm motility at room temperature: no or only relatively limited capability

## O=C(O)[C@@H]1CCCN1 [proline]
[3]
  isoelectric point (pI): 6.3
Bovine spermatozoa [4]
  capability to prolong bovine sperm motility at room temperature: no or only relatively limited capability

## OC[C@H]1O[C@H](OC[C@H]2O[C@H](O[C@]3(CO)O[C@H](CO)[C@@H](O)[C@@H]3O)[C@H](O)[C@@H](O)[C@@H]2O)[C@H](O)[C@@H](O)[C@H]1O [raffinose]
Bovine spermatozoa [2]
  effect on sperm motility at the 24 h mark as determined by CASA: No significant effects

## OC[C@H]1O[C@@](CO)(O[C@H]2O[C@H](CO)[C@@H](O)[C@H](O)[C@H]2O)[C@@H](O)[C@@H]1O [sucrose]
Bovine spermatozoa [2]
  effect on sperm motility at the 24 h mark as determined by CASA: No significant effects

## NCCS(=O)(=O)O [taurine, 2-aminoethane-1-sulfonic acid]
Bovine spermatozoa [4]
  total and progressive motilities compared with other osmolyte treatments: significantly higher than all other treatments
Bovine spermatozoa [4]; day 3 of liquid storage
  total and progressive motility, taurine compared with valine: better total and progressive motility

## N[C@@H](Cc1c[nH]c2ccccc12)C(=O)O [tryptophan]
[3]
  isoelectric point (pI): 5.89
Bovine spermatozoa [4]
  capability to prolong bovine sperm motility at room temperature: no or only relatively limited capability

## CC(C)[C@H](N)C(=O)O [valine]
[3]
  isoelectric point (pI): 5.96
Bovine spermatozoa [4]
  total and progressive motilities compared with other osmolyte treatments: substantially better
  motility by day 14 of storage: significantly declined
  loss in motility between 3 and 10 days of storage: did not suffer any significant loss in motility
  motility compared with NaCl and choline chloride controls: significantly higher than both of the controls
Bovine spermatozoa [4]; day 14 of liquid storage, data not shown
  motility, valine compared with taurine: better motility
